pIC50: −log10 of the molar value. “And” between values parts separate entries of the source, which are not always exact repeats. Identical values can stand only once.
System: 521955-158-R2-J5-PDC complex spheroid growth
Assay: Anticancer human tumor 521955-158-R2-J5-PDC patient-derived pancreatic carcinoma cell line growth inhibition [AhR]
Details: for viability, T/C: stronger effect = lower value
Text: Multicellular complex tumor spheroid response to aryl hydrocarbon receptor antagonists in combination with a variety of drugs and investigational agents in selected tumor cell lines
The current study was undertaken to assess response to aryl hydrocarbon receptor antagonists in combination with standard-of-care drugs and investigational agents in solid tumor complex spheroid models. Complex spheroids include a stromal component modeled by human endothelial cells (HUVEC) and fibroblasts modeled by human mesenchymal stem cells (MSCs). The concentration ranges selected for each drug and investigational agent were based upon clinically achievable concentrations if the clinical Cmax of the agent was known.
Compounds. The drugs and investigational agents: BAY 2416964 (NSC825713), GNF351 (NSC835774), CH-223191 (NSC835775), CPI-455 (NSC825282), aza-TdCyd (NSC777586), decitabine (NSC127716), belinostat (NSC758774), entinostat (NSC756642), pevonedistat (NSC761192), tazemetostat (NSC777109), talazoparib (NSC765396), olaparib (NSC753686), selinexor (NSC780203), nedisertib (M3814, NSC802822), bortezomib (NSC756655), venetoclax (NSC766270), doxorubicin (NSC123127), elimusertib (BAY189344, NSC800525), ceralasertib (AZD6738, NSC777638), TAK-243 (NSC785004), alisertib (NSC759677), etoposide (NSC141540), topotecan (NSC609699), eribulin (NSC707389), gemcitabine (NSC613327), carboplatin (NSC241240), cisplatin (NSC119875), and SN-38 (NSC673596) were obtained from the National Cancer Institute (NCI) Developmental Therapeutics Program Chemical Repository (32). The FDA-approved anticancer drug set is available from the Developmental Therapeutics Program at https://dtp.cancer.gov/organization/dscb/obtaining/available plates.htm. […] The stock solutions were prepared in dimethyl sulfoxide (DMSO, Sigma-Aldrich, St. Louis, MO, cat. D2650), except for the platinum compounds which were prepared in saline (Quality Biological, Gaithersburg, MD, cat. 114-055-101), at 800-fold the tested concentration and stored at -70 degrees C prior to their use. All drugs and investigational agents were tested over a range starting from a high concentration at or near the clinical Cmax and decreasing in half-log increments. If the clinical Cmax for an agent had not been determined, the highest concentration tested was 10 microM (Table 1).
Cell Culture. All cells were maintained in an incubator at 37 degrees C and 5% CO2 with 95% humidity. The PDC lines were cultured according to standard operating procedures established by the NCI PDMR (https://pdmr.cancer.gov). Briefly, all PDCs were thawed and cultured in Matrigel-coated flasks prepared with a working solution of 1X Ham's F-12 nutrient mix, without supplementation (Invitrogen, Waltham, MA, cat. 11765054), 100 U/mL penicillin-streptomycin (Invitrogen, cat. 15140122), and 2.5% Matrigel (Corning Inc., Corning, NY, cat. 354248) for the first three passages. All PDCs were cultured in complete DMEM/F-12 media containing advanced DMEM/F-12 (Invitrogen, cat. 12634028), 4.9% defined fetal bovine serum, heat inactivated (HyClone Laboratories Inc., Logan, UT, cat. SH30070.03HI), 389 ng/mL hydrocortisone (Sigma-Aldrich, cat. H4001), 9.7 ng/mL human EGF recombinant protein (Invitrogen, cat. PHG0313), 23.4 microg/mL adenine (Sigma-Aldrich, cat. A2786), 97.3 U/mL penicillin-streptomycin (Invitrogen, cat. 15140122), 1.9 mM L-glutamine (Invitrogen, cat. 25030081), and 9.7 microM Y-27632 dihydrochloride (Tocris Bioscience, Bristol, United Kingdom, cat. 1254). The PDCs were cultured in complete DMEM/F12 media without 10 microM Y-27632 dihydrochloride for at least two passages prior to the screen. The established cell lines NCI-H1341 and […] were cultured in DMEM/F-12, HEPES (Invitrogen, cat. 11330032), 5% defined fetal bovine serum (HyClone Laboratories Inc., cat. SH30070.03), ITS premix universal culture supplement [insulin (5 microg/mL), transferrin (5 microg/mL), and selenious acid (5 ng/mL)] […]
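Wherever viability, T/C is given: spheroids mix tumor cells with HUVEC endothelium and human MSC stroma; luminescence taken as viability surrogate after a week of drug exposure.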

| Structure (SMILES) | pIC50 (curve of compound) | viability, T/C (compound 0.0316 µM) | viability, T/C (compound 0.1 µM) | viability, T/C (compound 0.316 µM) | viability, T/C (compound 1 µM) | viability, T/C (compound 3.16 µM) | viability, T/C (compound 10 µM) | other results |
| --- | --- | --- | --- | --- | --- | --- | --- | --- |
| CC(C)CC(NC(=O)C(Cc1ccccc1)NC(=O)c1cnccn1)B(O)O (stereo not drawn) | 7.78 and 7.88 and 8.33 | – | – | – | – | – | – | viability, T/C (compound 0.000949 µM): 93.7% and 85.5% and 84.3%; viability, T/C (compound 0.003 µM): 94.1% and 71.8% and 78.5%; viability, T/C (compound 0.03 µM): 1.41% and 1.04% and 0.32%; viability, T/C (compound 0.0949 µM): 0.32% and 0.33% and 0.22%; viability, T/C (compound 0.3 µM): 0.33% and 0.39% (2×) |
| CC(C)c1c(-c2ccccc2)nc2c(C#N)c[nH]n2c1=O | < 5.00 | 86.8% and 83.8% and 96.4% | 103% and 100% and 89.5% | 96.2% and 76.9% and 87.5% | 85.3% and 75.7% and 64.5% | 88.3% and 95.4% and 70.7% | 83.1% and 71.7% and 86.4% | – |
| CC(CO)NC(=O)c1cc(-c2ccc(Cl)cc2)nn(-c2cnn(C)c2)c1=O (stereo not drawn) | – | – | – | – | – | – | 87.4% [middle of 19 runs] | pIC50 (compound alone, run of 05/31/2022): < 5.00 |
| CC1(C)CCC(CN2CCN(c3ccc(C(=O)NS(=O)(=O)c4ccc(NCC5CCOCC5)c([N+](=O)[O-])c4)c(Oc4cnc5[nH]ccc5c4)c3)CC2)=C(c2ccc(Cl)cc2)C1 | < 5.00 | 96.5% and 101% and 99% | 71.9% and 97.7% and 79.6% | 105% and 111% and 106% | 90.7% and 91% and 77.8% | 96% and 87.3% and 90.5% | 73.7% and 91.8% and 83.6% | – |
| CC1COCCN1c1cc(-c2ccnn2C)c2ccnc(-c3ccn[nH]3)c2n1 (stereo not drawn) | 7.02 and 6.75 and 7.07 | 97.8% and 84.1% and 95.1% | 48% and 79.2% and 42.4% | 15.5% and 19.4% and 16.3% | 19.2% and 18.6% and 16% | – | – | viability, T/C (compound 0.00316 µM): 96.3% and 94.8% and 101%; viability, T/C (compound 0.01 µM): 98.2% and 92.8% and 104% |
| CC1COCCN1c1cc(C2(S(C)(=N)=O)CC2)nc(-c2ccnc3[nH]ccc23)n1 (stereo not drawn) | 5.61 and 5.68 and 5.67 | 100% and 91.6% and 125% | 108% and 93.5% and 106% | 107% and 85.8% and 101% | 114% and 85.9% and 106% | 34.1% and 30.7% and 22.6% | 18.6% and 15.7% and 17.3% | – |
| CCN(c1cc(-c2ccc(CN3CCOCC3)cc2)cc(C(=O)NCc2c(C)cc(C)[nH]c2=O)c1C)C1CCOCC1 | < 5.52 | – | – | – | – | – | – | viability, T/C (compound 0.00949 µM): 104% and 116% and 106%; viability, T/C (compound 0.03 µM): 111% (2×) and 113%; viability, T/C (compound 0.0949 µM): 93.7% and 98.9% and 87%; viability, T/C (compound 0.3 µM): 97.9% and 94.6% and 81.7%; viability, T/C (compound 0.949 µM): 99.9% and 70.8% and 81.8%; viability, T/C (compound 3 µM): 96.3% and 84.7% and 88% |
| CC[C@@]1(O)C(=O)OCc2c1cc1n(c2=O)Cc2cc3c(CN(C)C)c(O)ccc3nc2-1 | 7.28 and 7.66 and 7.77 | 62.3% and 43.2% and 34.2% | 33.1% and 22.1% and 23.6% | – | – | – | – | viability, T/C (compound 0.000316 µM): 93.2% and 80.6% and 77.3%; viability, T/C (compound 0.001 µM): 90.4% and 95% and 67.7%; viability, T/C (compound 0.00316 µM): 80.1% and 84.2% and 84.3%; viability, T/C (compound 0.01 µM): 86.6% and 65.1% and 63.1% |
| CCc1c2c(nc3ccc(O)cc13)-c1cc3c(c(=O)n1C2)COC(=O)[C@]3(O)CC | 8.20 and 8.21 and 8.62 | – | – | – | – | – | – | viability, T/C (compound 0.000949 µM): 73.4% and 63.5% and 74.2%; viability, T/C (compound 0.003 µM): 71% and 71.7% and 44.2%; viability, T/C (compound 0.00949 µM): 38.3% and 39.2% and 18.2%; viability, T/C (compound 0.03 µM): 22% and 28.9% and 12%; viability, T/C (compound 0.0949 µM): 16.9% and 22.7% and 10%; viability, T/C (compound 0.3 µM): 14.9% and 13.4% and 8.11% |
| COc1cc(C2c3cc4c(cc3C(OC3OC5COC(C)OC5C(O)C3O)C3COC(=O)C23)OCO4)cc(OC)c1O (stereo not drawn) | 5.86 and 6.15 and 6.20 | 92.5% and 85.2% and 81.7% | 98.5% and 79.4% and 77% | 76.4% and 80.6% and 66.2% | 56.4% and 36.8% and 39.9% | 36.9% and 23.6% and 22.1% | 31% and 20.7% and 19.1% | – |
| COc1cc(Nc2ncc3c(n2)-c2ccc(Cl)cc2C(c2c(F)cccc2OC)=NC3)ccc1C(=O)O | < 5.00 and 5.07 | 77.4% and 67.8% and 86.3% | 85.5% and 81.5% and 77.1% | 58.4% and 76.3% and 50% | 57.4% and 60% and 62% | 82.1% and 66.4% and 67% | 66.9% and 47.4% and 49.2% | – |
| COc1ccc([C@@H](O)c2cc(-c3ncnc4cc(N5CCOCC5)ccc34)c(F)cc2Cl)nn1 | < 5.00 and 5.17 and 5.19 | 103% and 74.5% and 83% | 98.5% and 84.4% and 87.8% | 104% and 83.6% and 80.7% | 100% and 66.2% and 81.5% | 75.2% and 63.6% and 64.8% | 52% and 43.6% and 40.8% | – |
